Test [1] has as its target T1, WRN helicase (aa N517-P1238) (Homo sapiens, UniProt Q14191).
T1 construct: The core helicase motif of the WRN protein (aa N517-P1238) was produced for this assay; His (N); ZZ (N); 3C protease cleavage site (N); made in house; host or cells: Sf21 insect cells (baculovirus; virus and BIICs made in SF9)
As to the kind of experiment: WRN ATPase assay (DNA dependent ATP hydrolysis, ADP-Glo). It is filed as biochemical. Particulars: 3 hours pre-incubation, 300 micromolar ATP, FLAP26 DNA; geometric mean of at least 2. Summed up:
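DNA-dependent ATP hydrolysis detected as ADP by ADP-Glo luminescence, using 300 μM ATP, 0.2 nM FLAP26 substrate and 10 nM WRN aa N517-P1238 (Tris pH 7.5 buffer, 2 mM MgCl2, 50 mM NaCl). IC50s fitted from normalized duplicate half-log dilutions; reported as geometric means of at least 2 replicates.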
(In general: ADP-Glo turns the ADP formed in a reaction into a luminescent signal.)

A further test relates to SW48 cells. Put plainly: Proliferation assay SW48 (CellTiterGlo). It is filed as cell-based. Particulars: Homo sapiens, SW48, 96 h, SW48 colon carcinoma cells, 96 hours, CellTiterGlo; geometric mean of at least 2; read-out: Proliferation Assay SW48 GI50. Summed up:
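Read-out is CellTiterGlo luminescence after 96 hours of compound exposure, with % growth calculated against day-0 and vehicle-treated ATP levels. SW48 seeded at 2,000 cells/well, dosed next day with eight 3-fold serial dilutions, 0.1% DMSO. GI50 reported as geometric mean, at least 2 replicates.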
Background: In ATP-based viability assays light output follows the ATP content of the culture.

Another test concerns DLD1-WRN-KO cells. As to the kind of experiment: Proliferation assay DLD1-WRN-KO (CellTiterGlo, off-target effects). It is filed as cell-based. Particulars: 96 hours, geometric mean of at least 2. A digest of the protocol:
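DLD1 cells with CRISPR knockout of WRN were exposed overnight-seeded to eight 3-fold compound dilutions (0.1% DMSO) for 96 h at 37 °C. Viability was read as ATP by CellTiterGlo luminescence against a day-0 plate, giving GI50 and residual viability at top concentration.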

Structures are written as SMILES. Bounds are passed on as bounds.

T1 sequence (Q14191 517-1238): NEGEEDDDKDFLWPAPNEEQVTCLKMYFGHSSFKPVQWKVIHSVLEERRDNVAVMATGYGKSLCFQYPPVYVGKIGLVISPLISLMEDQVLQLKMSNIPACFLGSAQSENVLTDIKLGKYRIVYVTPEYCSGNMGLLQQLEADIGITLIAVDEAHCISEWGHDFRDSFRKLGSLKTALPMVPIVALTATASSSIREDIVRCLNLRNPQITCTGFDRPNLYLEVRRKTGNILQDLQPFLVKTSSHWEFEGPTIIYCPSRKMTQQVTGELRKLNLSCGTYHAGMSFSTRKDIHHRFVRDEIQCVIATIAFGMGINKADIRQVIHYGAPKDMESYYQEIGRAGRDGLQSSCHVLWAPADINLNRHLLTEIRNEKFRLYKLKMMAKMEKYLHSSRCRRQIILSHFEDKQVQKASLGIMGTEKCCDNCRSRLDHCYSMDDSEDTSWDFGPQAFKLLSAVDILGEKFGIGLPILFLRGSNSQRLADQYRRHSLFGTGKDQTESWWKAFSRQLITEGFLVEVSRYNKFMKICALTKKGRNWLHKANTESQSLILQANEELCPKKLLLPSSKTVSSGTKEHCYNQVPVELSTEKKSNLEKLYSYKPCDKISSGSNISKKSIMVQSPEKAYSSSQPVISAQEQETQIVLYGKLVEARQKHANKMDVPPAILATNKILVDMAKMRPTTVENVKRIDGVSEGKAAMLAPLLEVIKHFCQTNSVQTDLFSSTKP

For orientation: IC50 means the concentration at which inhibition is half-maximal. In test [1], `CC(=O)N1CCN(c2c(C)n(CC(=O)Nc3ccc(S(F)(F)(F)(F)F)cc3C)c3nc(C4=CCOCC4)nn3c2=O)CC1` [Example 62, 2-(6-(4-acetylpiperazin-1-yl)-2-(3,6-dihydro-2H-pyran-4-yl)-5-methyl-7-oxo-[1,2,4]triazolo[1,5-a]pyrimidin-4(7H)-yl)-N-(2-methyl-4-(pentafluoro-l6-sulfaneyl)phenyl)acetamide] had a 50% inhibitory concentration (IC50) of 500 nM. In addition, the GI50 was 1000 nM in the test with SW48 cells and above 10 µM in the test on DLD1-WRN-KO cells.

As to `CCc1ccc(NC(=O)Cn2c(C)c(N3CCN(C(C)=O)CC3)c(=O)n3nc(C4=CCOCC4)nc23)cc1F` [Example 92, 2-(6-(4-acetylpiperazin-1-yl)-2-(3,6-dihydro-2H-pyran-4-yl)-5-methyl-7-oxo-[1,2,4]triazolo[1,5-a]pyrimidin-4(7H)-yl)-N-(4-ethyl-3-fluorophenyl)acetamide], the IC50 in test [1] worked out at 700 nM. Further, the results for the GI50 in the test on SW48 cells and in the test with DLD1-WRN-KO cells were 4000 nM and above 10 µM, respectively.

In turn, `COc1cccc(C(=O)N2CCN(c3c(C)n(CC(=O)Nc4ccc(C(F)(F)F)cc4)c4nc(C5=CCOCC5)nn4c3=O)CC2)c1N` [Example 155, 2-(6-(4-(2-amino-3-methoxybenzoyl)piperazin-1-yl)-2-(3,6-dihydro-2H-pyran-4-yl)-5-methyl-7-oxo-[1,2,4]triazolo[1,5-a]pyrimidin-4(7H)-yl)-N-(4-(trifluoromethyl)phenyl)acetamide] registered an IC50 in test [1] of 100 nM. The GI50 with SW48 cells is 2000 nM; with DLD1-WRN-KO cells, above 10 µM.

In test [1], `CC(=O)N1CCN(c2c(C)n(CC(=O)Nc3cc(C(F)(F)F)c(Cl)cc3C)c3nc(C4=CCOCC4)nn3c2=O)CC1` [Example 80, 2-(6-(4-acetylpiperazin-1-yl)-2-(3,6-dihydro-2H-pyran-4-yl)-5-methyl-7-oxo-[1,2,4]triazolo[1,5-a]pyrimidin-4(7H)-yl)-N-(4-chloro-2-methyl-5-(trifluoromethyl)phenyl)acetamide] showed a half-maximal inhibitory concentration (IC50) of 300 nM. The results for the GI50 with SW48 cells and with DLD1-WRN-KO cells were 800 nM and above 10 µM, respectively.

Consider `CC(=O)N1CCN(c2c(C)n(CC(=O)Nc3ccc(C(F)(F)F)cc3)c3nc(N4CCCC(F)C4)nn3c2=O)CC1` (stereo not drawn) [Example 1, 2-(6-(4-acetylpiperazin-1-yl)-2-(3-fluoropiperidin-1-yl)-5-methyl-7-oxo-[1,2,4]triazolo[1,5-a]pyrimidin-4(7H)-yl)-N-(4-(trifluoromethyl)phenyl)acetamide], for which 1000 nM corresponded to half-maximal inhibition in test [1] (IC50). Moreover, the GI50 with SW48 cells is 5000 nM; in the test on DLD1-WRN-KO cells, above 10 µM.

`CCc1c(N2CCN(C(=O)c3ncn(C)c3O)CC2)c(=O)n2nc(C3=CCOCC3)nc2n1CC(=O)Nc1ccc(C(F)(F)F)cc1Cl` [Example 67, N-(2-chloro-4-(trifluoromethyl)phenyl)-2-(2-(3,6-dihydro-2H-pyran-4-yl)-5-ethyl-6-(4-(5-hydroxy-1-methyl-1H-imidazole-4-carbonyl)piperazin-1-yl)-7-oxo-[1,2,4]triazolo[1,5-a]pyrimidin-4(7H)-yl)acetamide] displayed an IC50 in test [1] of 300 nM. Also, the figures for the GI50 in the test on SW48 cells and in the test with DLD1-WRN-KO cells were 3000 nM and above 10 µM, respectively.

The compound `CC(=O)N1CCN(c2c(C)n(CC(=O)Nc3cc(Cl)c(C(F)(F)F)cc3C)c3nc(C4=CCOCC4)nn3c2=O)CC1` [Example 108, 2-(6-(4-acetylpiperazin-1-yl)-2-(3,6-dihydro-2H-pyran-4-yl)-5-methyl-7-oxo-[1,2,4]triazolo[1,5-a]pyrimidin-4(7H)-yl)-N-(5-chloro-2-methyl-4-(trifluoromethyl)phenyl)acetamide] had an IC50 in test [1] of 200 nM. Moreover, the GI50 in the test on SW48 cells was 900 nM; in the test with DLD1-WRN-KO cells, above 10 µM.

Regarding `Cc1c(C2CCN(C(=O)c3ccc(F)c(F)c3O)CC2)c(=O)n2nc(N3CCOCC3)nc2n1CC(=O)Nc1ccc(C(F)(F)F)cc1` [Example 146, 2-(6-(1-(3,4-difluoro-2-hydroxybenzoyl)piperidin-4-yl)-5-methyl-2-morpholino-7-oxo-[1,2,4]triazolo[1,5-a]pyrimidin-4(7H)-yl)-N-(4-(trifluoromethyl)phenyl)acetamide], the IC50 in test [1] amounted to 90 nM. The GI50 with SW48 cells is 4000 nM; in the test on DLD1-WRN-KO cells, above 10 µM.

Turning to `Cc1c(N2CCN(C(=O)OCc3ccccc3)CC2)c(=O)n2nc(C3=CCOCC3)nc2n1CC(=O)Nc1ccc(C(F)(F)F)cc1` [Example 65, benzyl 4-(2-(3,6-dihydro-2H-pyran-4-yl)-5-methyl-7-oxo-4-(2-oxo-2-((4-(trifluoromethyl)phenyl)amino)ethyl)-4,7-dihydro-[1,2,4]triazolo[1,5-a]pyrimidin-6-yl)piperazine-1-carboxylate], the IC50 in test [1] is 8000 nM. Further, the GI50 came to 4000 nM with SW48 cells and 4 µM in the test on DLD1-WRN-KO cells.

Take `CCc1c(N2CCN(C(=O)c3c(F)ccc(F)c3O)CC2)c(=O)n2nc(C3=CCCCO3)nc2n1CC(=O)Nc1ccc(C(F)(F)F)cc1` [Example 38, 2-(6-(4-(3,6-difluoro-2-hydroxybenzoyl)piperazin-1-yl)-2-(3,4-dihydro-2H-pyran-6-yl)-5-ethyl-7-oxo-[1,2,4]triazolo[1,5-a]pyrimidin-4(7H)-yl)-N-(4-(trifluoromethyl)phenyl)acetamide]: it took 30 nM to reach half-maximal inhibition in test [1] (IC50). Moreover, the results for the GI50 in the test with SW48 cells and in the test on DLD1-WRN-KO cells were 100 nM and above 10 µM, respectively.

In test [1], `CC(=O)N1CCN(c2c(C)n(CC(=O)Nc3ccc(S(F)(F)(F)(F)F)cc3)c3nc(C4=CCOCC4)nn3c2=O)CC1` [Example 78, 2-(6-(4-acetylpiperazin-1-yl)-2-(3,6-dihydro-2H-pyran-4-yl)-5-methyl-7-oxo-[1,2,4]triazolo[1,5-a]pyrimidin-4(7H)-yl)-N-(4-(pentafluoro-l6-sulfaneyl)phenyl)acetamide] registered an IC50 of 200 nM. Moreover, the GI50 in the test on SW48 cells is 3000 nM; in the test with DLD1-WRN-KO cells, above 10 µM.

Regarding `CC(=O)N1CCN(c2c(C)n(CC(=O)Nc3ccc(C(F)(F)F)cc3)c3nc(C4=CCCO4)nn3c2=O)CC1` [Example 134, 2-(6-(4-acetylpiperazin-1-yl)-2-(4,5-dihydrofuran-2-yl)-5-methyl-7-oxo-[1,2,4]triazolo[1,5-a]pyrimidin-4(7H)-yl)-N-(4-(trifluoromethyl)phenyl)acetamide], it took 4000 nM to reach half-maximal inhibition in test [1] (IC50). Also, the GI50 in the test with SW48 cells is 5000 nM; in the test on DLD1-WRN-KO cells it was above 10 µM.

On to `CC(=O)N1CCN(c2c(C)n(CC(=O)Nc3cc(F)c(C(F)(F)F)cc3C)c3nc(C4=CCOCC4)nn3c2=O)CC1` [Example 83, 2-(6-(4-acetylpiperazin-1-yl)-2-(3,6-dihydro-2H-pyran-4-yl)-5-methyl-7-oxo-[1,2,4]triazolo[1,5-a]pyrimidin-4(7H)-yl)-N-(5-fluoro-2-methyl-4-(trifluoromethyl)phenyl)acetamide], for which the IC50 in test [1] came to 300 nM. The GI50 in the test with SW48 cells is 2000 nM; in the test on DLD1-WRN-KO cells it was above 10 µM.

In test [1], `CCc1c(N2CCN(C(=O)c3ncc4c(c3O)OCC4)CC2)c(=O)n2nc(C3=CCOCC3)nc2n1CC(=O)Nc1ccc(C(F)(F)F)cc1Cl` [Example 11, N-(2-chloro-4-(trifluoromethyl)phenyl)-2-(2-(3,6-dihydro-2H-pyran-4-yl)-5-ethyl-6-(4-(7-hydroxy-2,3-dihydrofuro[3,2-c]pyridine-6-carbonyl)piperazin-1-yl)-7-oxo-[1,2,4]triazolo[1,5-a]pyrimidin-4(7H)-yl)acetamide] registered a half-maximal inhibitory concentration (IC50) of 50 nM. The figures for the GI50 in the test with SW48 cells and in the test with DLD1-WRN-KO cells were 60 nM and above 10 µM, respectively.

Consider `Cc1c(N2CCN(C(=O)c3cnccc3O)CC2)c(=O)n2nc(N3CCOCC3)nc2n1CC(=O)Nc1ccc(C(F)(F)F)cc1` [Example 152, 2-(5-methyl-2-morpholino-7-oxo-6-(4-(4-oxo-1,4-dihydropyridine-3-carbonyl)piperazin-1-yl)-[1,2,4]triazolo[1,5-a]pyrimidin-4(7H)-yl)-N-(4-(trifluoromethyl)phenyl)acetamide], for which, in test [1], the IC50 was determined as 500 nM. Also, the GI50 in the test on SW48 cells was above 10000 nM; in the test with DLD1-WRN-KO cells, above 10 µM.

For the compound `Cc1c(N2CCN(C(=O)c3cc(F)ccc3N)CC2)c(=O)n2nc(C3=CCOCC3)nc2n1CC(=O)Nc1ccc(C(F)(F)F)cc1` [Example 157, 2-(6-(4-(2-amino-5-fluorobenzoyl)piperazin-1-yl)-2-(3,6-dihydro-2H-pyran-4-yl)-5-methyl-7-oxo-[1,2,4]triazolo[1,5-a]pyrimidin-4(7H)-yl)-N-(4-(trifluoromethyl)phenyl)acetamide], the IC50 in test [1] worked out at 200 nM. In addition, the GI50 was 3000 nM in the test with SW48 cells and above 10 µM with DLD1-WRN-KO cells.

Compound `CCc1c(N2CCN(C(=O)c3nn(C)c(=O)[nH]3)CC2)c(=O)n2nc(C3=CCCC3)nc2n1CC(=O)Nc1ccc(C(F)(F)F)cc1` [Example 12, 2-(2-(cyclopent-1-en-1-yl)-5-ethyl-6-(4-(1-methyl-5-oxo-4,5-dihydro-1H-1,2,4-triazole-3-carbonyl)piperazin-1-yl)-7-oxo-[1,2,4]triazolo[1,5-a]pyrimidin-4(7H)-yl)-N-(4-(trifluoromethyl)phenyl)acetamide] came in with a half-maximal inhibitory concentration (IC50) in test [1] of 10 nM. The GI50 is 800 nM with SW48 cells and above 10 µM in the test with DLD1-WRN-KO cells.

These data come from patent publication US20260250289A1, “BICYCLIC HETEROCYCLES AND THEIR USE AS WRN INHIBITORS” (Novartis AG, priority 2022, published 2026).
